Results from US11890287B2, “Therapeutic compounds and compositions for treating social disorders and substance use disorders” (Kinoxis Therapeutics Pty Ltd, priority 2015, dated 2024).
pIC50: −log10 of the molar value.

Assays:
rhesus monkeys = assay: Intravenous cocaine self-administration; type: in vivo, rhesus monkey; conditions: 3 mg/kg orally
human OT receptor = human OT receptor (Homo sapiens, UniProt P30559); assay: Orthosteric binding against [3H]OT
human V1a receptor = human V1a receptor (Homo sapiens, UniProt P37288); assay: Orthosteric binding against [3H]AVP
V1B = V1B (Homo sapiens, UniProt P47901); assay: Orthosteric binding, AVP receptors
V2 = V2 (Homo sapiens, UniProt P30518); assay: Orthosteric binding, AVP receptors
V1aR = target: T1, V1aR (Homo sapiens, UniProt P37288); assay: IP1 signalling on V1aR HEK cells; type: cell-based
T1 construct: expressed in transfected cells; host or cells: HEK cells

rat hypothalamic neurons = assay: Signalling in rat hypothalamic neurons; type: cell-based
HEK-293 cells = assay: Cell viability (Cell Titer Blue); type: cell-based; conditions: 48 hours; for Viability: mean ± SD
Protocol: (§1) No apparent cytotoxicity of SOC-1 has been seen in vitro or toxicity in vivo. In a test, SH-SY5Y neuroblastoma cells and HEK-293 cells (4×10^4 cells per well) were exposed to OT or SOC-1 (0.01-10 μM) for 48 hours, with daily media changes. Viability of cells was assessed after a 4 hour exposure to Cell Titer Blue (Promega).

[1] = system: SH-SY5Y neuroblastoma cells; assay: Cell viability (Cell Titer Blue); type: cell-based; conditions: 48 hours; for Viability: mean ± SD
Protocol: as §1

rats [2] = assay: Non-social tests of anxiety (elevated plus maze, open field); type: in vivo, rat; conditions: acute dosing or residual long-term effect
rats [3] = assay: Conditioned place preference; conditions: rat, in vivo
male Sprague Dawley rats = assay: Methamphetamine IVSA under a progressive ratio schedule; type: in vivo, rat
Protocol: Following recovery from surgery, rats were able to self-administer intravenous METH during 2 hour sessions. At the beginning of each session, catheters were flushed with 0.1 ml heparinised saline (10 IU/ml) and were connected to the infusion line. Lever extension and house light illumination indicated the initiation of the session. […] Depression of the active lever delivered a 3 s infusion of METH (0.1 mg/kg/infusion, 50 μL), illuminated the cue light, and extinguished the house light. The house light was extinguished for a 20 second time period during which depression of the active lever had no programmed consequences. […] At the end of each session, the infusion line was disconnected and catheters were flushed with 0.2 ml of cephazolin sodium in heparinized saline solution.
Rats acquired self-administration of METH during daily 2 hour fixed ratio 1 scheduled sessions. To avoid overdose, each rat was limited to a maximum of 60 infusions per session. Rats continued under the FR-1 schedule until stable responding was met as indicated by less than 10% variability in number of infusions and active lever presses compared to the day prior. Stable self-administration baselines were achieved within 10 days, after which rats advanced to the progressive ratio schedule.
Under the progressive ratio (PR) schedule, METH infusions were delivered according to the ratio: ((5×(e^reinforcer #×0.2)−5). The number of active lever presses that were required to receive one METH infusion increased according to the following sequence: 1, 2, 4, 6, 9, 12, 15, 20, 25, 32, 40, 50, 62, 77, 95, 118, 145, 178, 219, 268 (Cornish et al., 2005). The daily PR sessions were completed after 2 hours or if an infusion had not been self-administered for 60 minutes. Rats continued with PR sessions until lever pressing stabilised, which was determined by less than 10% variability in number of infusions and active lever presses for two consecutive days. Lever pressing stabilised after 7 days. During this time, the rats were given a sham saline i.p. (1 ml/kg) injection prior to the session. […]

BALB/C mice = assay: Social preference test, BALB/C mouse model of autism spectrum disorders; type: in vivo; conditions: 5 mg/kg IP
Source text: BALB/C mice have autistic-like behaviours (including reduced interest in social stimuli) compared to standard C57BL/6 mice. In a social preference test, BALB/C mice show no preference for interacting with a social stimulus (a novel mouse) over an object stimulus (a novel object), whereas C57BL/6 mice show a robust preference.

T1 sequence (P37288 whole entry): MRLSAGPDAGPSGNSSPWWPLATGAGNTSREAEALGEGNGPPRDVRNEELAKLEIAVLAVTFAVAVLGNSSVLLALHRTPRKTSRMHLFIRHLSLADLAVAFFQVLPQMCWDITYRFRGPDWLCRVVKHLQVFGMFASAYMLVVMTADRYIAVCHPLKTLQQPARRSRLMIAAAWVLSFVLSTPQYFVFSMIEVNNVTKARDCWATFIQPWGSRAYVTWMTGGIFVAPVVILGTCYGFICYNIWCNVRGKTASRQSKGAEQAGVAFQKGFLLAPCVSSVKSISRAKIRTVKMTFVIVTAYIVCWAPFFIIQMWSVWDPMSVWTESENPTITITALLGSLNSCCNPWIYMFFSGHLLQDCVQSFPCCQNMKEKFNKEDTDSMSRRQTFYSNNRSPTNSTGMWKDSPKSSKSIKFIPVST
human OT receptor, sequence (P30559 whole entry): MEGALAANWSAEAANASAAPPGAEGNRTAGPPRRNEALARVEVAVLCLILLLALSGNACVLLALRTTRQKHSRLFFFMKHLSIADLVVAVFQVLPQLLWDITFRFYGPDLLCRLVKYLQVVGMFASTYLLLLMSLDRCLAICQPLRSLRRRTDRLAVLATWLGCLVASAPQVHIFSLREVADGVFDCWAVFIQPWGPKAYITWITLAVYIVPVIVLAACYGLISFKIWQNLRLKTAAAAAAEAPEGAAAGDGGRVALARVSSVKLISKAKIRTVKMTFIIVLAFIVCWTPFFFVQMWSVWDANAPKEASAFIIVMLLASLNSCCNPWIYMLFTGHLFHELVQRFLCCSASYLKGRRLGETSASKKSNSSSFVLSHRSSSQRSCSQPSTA
human V1a receptor, sequence (P37288 whole entry): as the sequence (P37288 whole entry) above
V2, sequence (P30518 whole entry): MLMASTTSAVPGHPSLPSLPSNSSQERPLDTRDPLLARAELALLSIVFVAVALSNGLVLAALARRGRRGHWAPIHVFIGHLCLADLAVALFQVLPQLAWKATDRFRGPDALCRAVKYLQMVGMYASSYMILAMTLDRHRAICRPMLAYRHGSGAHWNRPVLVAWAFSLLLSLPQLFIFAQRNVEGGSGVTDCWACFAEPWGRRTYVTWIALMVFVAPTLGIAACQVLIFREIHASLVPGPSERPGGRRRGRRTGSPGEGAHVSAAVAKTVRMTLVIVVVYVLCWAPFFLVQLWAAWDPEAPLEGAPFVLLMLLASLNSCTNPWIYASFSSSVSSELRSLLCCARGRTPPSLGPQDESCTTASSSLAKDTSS
V1B, sequence (P47901 whole entry): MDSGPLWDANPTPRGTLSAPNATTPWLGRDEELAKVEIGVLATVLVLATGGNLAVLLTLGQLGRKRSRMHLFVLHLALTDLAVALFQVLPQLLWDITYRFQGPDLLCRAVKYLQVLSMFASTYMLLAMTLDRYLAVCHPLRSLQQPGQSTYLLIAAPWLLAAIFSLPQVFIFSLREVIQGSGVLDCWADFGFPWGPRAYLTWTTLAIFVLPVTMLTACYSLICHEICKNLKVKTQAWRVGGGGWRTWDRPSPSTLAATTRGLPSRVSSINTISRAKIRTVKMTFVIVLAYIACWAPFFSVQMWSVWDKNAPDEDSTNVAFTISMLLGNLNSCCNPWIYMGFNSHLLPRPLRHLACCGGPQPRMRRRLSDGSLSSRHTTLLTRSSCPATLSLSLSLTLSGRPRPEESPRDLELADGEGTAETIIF

## Cl.Cn1ncc2c1Nc1ccccc1NC2 [SOC-1]
Rhesus monkeys
  food consumption: without affecting food consumption
  intravenous cocaine self-administration relative to baseline levels: nearly halved
Human OT receptor
  pIC50: < 5.00
Human V1a receptor
  pIC50: < 5.00
V1B
  affinity for the orthosteric binding site of V1B: Nor does SOC-1 show any affinity
V2
  affinity for the orthosteric binding site of V2: Nor does SOC-1 show any affinity
V1aR
  agonist or positive allosteric modulator activity at V1aR: not an agonist or positive allosteric modulator of V1aRs
  antagonist activity at V1aR: weak antagonist activity
Rat hypothalamic neurons
  Ca^2+ levels: did not reliably alter Ca^2+ levels
  IP1 levels: did not alter IP1 levels
  basal cAMP: able to decrease basal cAMP
  forskolin-stimulated cAMP: did not reliably decrease forskolin-stimulated cAMP
HEK-293 cells; 0.01 μM
  Viability: 102.6 ± 2.1 percentage of vehicle viability
HEK-293 cells; 0.1 μM
  Viability: 102.1 ± 3.2 percentage of vehicle viability
HEK-293 cells; 1 μM
  Viability: 102.5 ± 3.6 percentage of vehicle viability
HEK-293 cells; 10 μM
  Viability: 103.2 ± 1.2 percentage of vehicle viability
HEK-293 cells; 0.01-10 μM
  differences in viability: No significant differences in viability
[1]; 0.01 μM
  Viability: 98.9 ± 2.7 percentage of vehicle viability
[1]; 0.1 μM
  Viability: 99.1 ± 2.9 percentage of vehicle viability
[1]; 1 μM
  Viability: 97.7 ± 1.6 percentage of vehicle viability
[1]; 10 μM
  Viability: 97.0 ± 2.5 percentage of vehicle viability
[1]; 0.01-10 μM
  differences in viability: No significant differences in viability
Rats [2]
  effect in non-social tests of anxiety: without effect
Rats [3]
  conditioned place preference: does not produce a conditioned place preference
Male Sprague Dawley rats; 5 mg (p=0.043) and 10 mg/kg (p=0.007) IP vs vehicle
  active lever pressing under a PR schedule: significantly reduced active lever pressing
Male Sprague Dawley rats; 10 mg/kg IP, p=0.001 vs vehicle
  infusion breakpoint: significant reduction
Male Sprague Dawley rats; 10 mg/kg IP, p=0.005 vs vehicle
  locomotor activity: significant reduction
BALB/C mice
  time spent investigating the object stimulus (a novel object): significantly increased the amount of time the BALB/C mice spent investigating the object stimulus
  time spent investigating the social stimulus (a novel mouse): significantly increased the amount of time BALB/C mice spent investigating the social stimulus
